Data as given in ChEMBL document CHEMBL4028802, “DILIrank: the largest reference drug list ranked by the risk for developing drug-induced liver injury in humans” (Drug Discov Today, 2016).
Starred links: 1 amine or outer side, 2 acyl side, 3 side chain; linkers in the order of their positions; H or OH if unused. Positions of bridges follow the written chain, without caps; N, C: chain ends. Non-standard residues stand in square brackets, D forms with d. Residues, ends and D or L forms follow the SMILES beside them. Chains are numbered I, II in the order given. *: point of attachment. Actinocin(9to1) = Cc1c2oc3c(C)ccc(C(=O)[*:1])c3nc-2c(C(=O)[*:2])c(N)c1=O; dPhe(4-NHCONH2) = NC(=O)Nc1ccc(C[C@@H](N)C(=O)O)cc1; Dihydroorotyl(S) = O=C1C[C@@H](C(=O)*)NC(=O)N1; dPhe(4-Cl) = N[C@H](Cc1ccc(Cl)cc1)C(=O)O; Phe(4-NH2) = Nc1ccc(C[C@H](N)C(=O)O)cc1; d2Nal = N[C@H](Cc1ccc2ccccc2c1)C(=O)O; Lys(iPr) = CC(C)NCCCC[C@H](N)C(=O)O; d3Pal = N[C@H](Cc1cccnc1)C(=O)O; NMeV = CN[C@H](C(=O)O)C(C)C; Sar = CNCC(=O)O

Legend:
Homo sapiens [1] = organism: Homo sapiens; assay: Liver toxicity in human assessed as induction of drug-induced liver injury by measuring severity class index
Homo sapiens [2] = organism: Homo sapiens; assay: Liver toxicity in human assessed as induction of drug-induced liver injury by measuring verified drug-induced liver injury concern status
For DILI severity class in this document: key of the grades not given here.

SMILES	DILI_severity_class (Homo sapiens [1])	DILI_Concern (Homo sapiens [2])
CCN(CC)CCOc1ccc(C(=C(Cl)c2ccccc2)c2ccccc2)cc1 [CLOMIPHENE]	3	Less-Dili-Concern
CN(C)CCCN1c2ccccc2CCc2ccc(Cl)cc21 [CLOMIPRAMINE]	8	Most-Dili-Concern
O=C1CN=C(c2ccccc2Cl)c2cc([N+](=O)[O-])ccc2N1 [CLONAZEPAM]	3	Less-Dili-Concern
Clc1cccc(Cl)c1N=C1NCCN1 [CLONIDINE]	3	Ambiguous-Dili-Concern
COC(=O)[C@H](c1ccccc1Cl)N1CCc2sccc2C1 [CLOPIDOGREL]	7	Less-Dili-Concern
O=C(O)C1N=C(c2ccccc2)c2cc(Cl)ccc2NC1=O (stereo not drawn) [CLORAZEPIC ACID]	3	Ambiguous-Dili-Concern
Clc1ccccc1C(c1ccccc1)(c1ccccc1)n1ccnc1 [CLOTRIMAZOLE]	3	Less-Dili-Concern
Cc1onc(-c2ccccc2Cl)c1C(=O)N[C@@H]1C(=O)N2[C@@H]1SC(C)(C)[C@@H]2C(=O)O [CLOXACILLIN]	3	Less-Dili-Concern
CN1CCN(C2=Nc3cc(Cl)ccc3Nc3ccccc32)CC1 [CLOZAPINE]	5	Most-Dili-Concern
COc1ccc2c3c1O[C@H]1[C@@H](O)C=C[C@H]4[C@@H](C2)N(C)CC[C@@]341 [CODEINE]	0	No-Dili-Concern
COc1cc2c(c(OC)c1OC)-c1ccc(OC)c(=O)cc1[C@@H](NC(C)=O)CC2 [COLCHICINE]	6	Ambiguous-Dili-Concern
Cc1nc2c([nH]1)-c1ccccc1N(C(=O)c1ccc(NC(=O)c3ccccc3-c3ccccc3)cc1)CC2 [CONIVAPTAN]	0	No-Dili-Concern
CC(=O)OCC(=O)[C@@]1(O)CC[C@H]2[C@@H]3CCC4=CC(=O)CC[C@]4(C)[C@H]3C(=O)C[C@@]21C [CORTISONE ACETATE]	0	No-Dili-Concern
CN(C)CCC=C1c2ccccc2C=Cc2ccccc21 [CYCLOBENZAPRINE]	5	Less-Dili-Concern
CC(=O)Oc1ccc(C(=C2CCCCC2)c2ccc(OC(C)=O)cc2)cc1 [CYCLOFENIL]	8	Most-Dili-Concern
O=P1(N(CCCl)CCCl)NCCCO1 (stereo not drawn) [CYCLOPHOSPHAMIDE ANHYDROUS]	5	Less-Dili-Concern
N[C@@H]1CON=C1O [CYCLOSERINE]	3	Ambiguous-Dili-Concern
CN1CCC(=C2c3ccccc3C=Cc3ccccc32)CC1 [CYPROHEPTADINE]	7	Less-Dili-Concern
NCCS [CYSTEAMINE]	3	Ambiguous-Dili-Concern
N[C@@H](CS)C(=O)O [CYSTEINE]	3	Ambiguous-Dili-Concern
Nc1ccn([C@@H]2O[C@H](CO)[C@@H](O)[C@@H]2O)c(=O)n1 [CYTARABINE]	3	Most-Dili-Concern
CN(C)/N=N/c1[nH]cnc1C(N)=O [DACARBAZINE]	6	Most-Dili-Concern
Cc1c2oc3c(C)ccc(C(=O)N[C@@H]4C(=O)N[C@H](C(C)C)C(=O)N5CCC[C@H]5C(=O)N(C)CC(=O)N(C)[C@@H](C(C)C)C(=O)O[C@@H]4C)c3nc-2c(C(=O)N[C@@H]2C(=O)N[C@H](C(C)C)C(=O)N3CCC[C@H]3C(=O)N(C)CC(=O)N(C)[C@@H](C(C)C)C(=O)O[C@@H]2C)c(N)c1=O [DACTINOMYCIN] (I: T[dV]P[Sar][NMeV] / II: T[dV]P[Sar][NMeV]; ester I:1-I:C, II:1-II:C; linker I:N-II:N via Actinocin(9to1))	8	Most-Dili-Concern
C#C[C@]1(O)CC[C@H]2[C@@H]3CCC4=Cc5oncc5C[C@]4(C)[C@H]3CC[C@@]21C [DANAZOL]	8	Most-Dili-Concern
O=C1CN(/N=C/c2ccc(-c3ccc([N+](=O)[O-])cc3)o2)C(O)=N1 [DANTROLENE]	8	Most-Dili-Concern
Nc1ccc(S(=O)(=O)c2ccc(N)cc2)cc1 [DAPSONE]	3	Less-Dili-Concern
CCCCCCCCCC(=O)N[C@@H](Cc1c[nH]c2ccccc12)C(=O)N[C@H](CC(N)=O)C(=O)N[C@@H](CC(=O)O)C(=O)N[C@@H]1C(=O)NCC(=O)N[C@@H](CCCN)C(=O)N[C@@H](CC(=O)O)C(=O)N[C@H](C)C(=O)N[C@@H](CC(=O)O)C(=O)NCC(=O)N[C@H](CO)C(=O)N[C@@H]([C@H](C)CC(=O)O)C(=O)N[C@@H](CC(=O)c2ccccc2N)C(=O)O[C@@H]1C [DAPTOMYCIN]	5	Less-Dili-Concern

SMILES	DILI_severity_class (Homo sapiens [1])	DILI_Concern (Homo sapiens [2])
NC(=O)C(c1ccccc1)(c1ccccc1)[C@@H]1CCN(CCc2ccc3c(c2)CCO3)C1 [DARIFENACIN]	0	No-Dili-Concern
Cc1nc(Nc2ncc(C(=O)Nc3c(C)cccc3Cl)s2)cc(N2CCN(CCO)CC2)n1.O [DASATINIB]	4	Less-Dili-Concern
COc1cccc2c1C(=O)c1c(O)c3c(c(O)c1C2=O)C[C@@](O)(C(C)=O)C[C@@H]3O[C@H]1C[C@H](N)[C@H](O)[C@H](C)O1 [DAUNORUBICIN]	0	No-Dili-Concern
Nc1ncn([C@H]2C[C@H](O)[C@@H](CO)O2)c(=O)n1 [DECITABINE]	4	Ambiguous-Dili-Concern
O=C(O)c1ccc(-n2nc(-c3ccccc3O)nc2-c2ccccc2O)cc1 [DEFERASIROX]	7	Most-Dili-Concern
CC(=O)N(O)CCCCCNC(=O)CCC(=O)N(O)CCCCCNC(=O)CCC(=O)N(O)CCCCCN [DEFEROXAMINE]	0	Less-Dili-Concern
CC(=O)N[C@H](Cc1ccc2ccccc2c1)C(=O)N[C@H](Cc1ccc(Cl)cc1)C(=O)N[C@H](Cc1cccnc1)C(=O)N[C@@H](CO)C(=O)N[C@@H](Cc1ccc(NC(=O)[C@@H]2CC(=O)NC(=O)N2)cc1)C(=O)N[C@H](Cc1ccc(NC(N)=O)cc1)C(=O)N[C@@H](CC(C)C)C(=O)N[C@@H](CCCCNC(C)C)C(=O)N1CCC[C@H]1C(=O)N[C@H](C)C(N)=O [DEGARELIX] (Ac-[d2Nal][dPhe(4-Cl)][d3Pal]S[Phe(4-NH2)](Dihydroorotyl(S))[dPhe(4-NHCONH2)]L[Lys(iPr)]P[dA]-NH2)	3	Ambiguous-Dili-Concern
CC(C)Nc1cccnc1N1CCN(C(=O)c2cc3cc(NS(C)(=O)=O)ccc3[nH]2)CC1 [DELAVIRDINE]	5	Ambiguous-Dili-Concern
CN(C)[C@@H]1C(O)=C(C(N)=O)C(=O)[C@@]2(O)C(O)=C3C(=O)c4c(O)ccc(Cl)c4[C@@H](O)[C@H]3C[C@@H]12 [DEMECLOCYCLINE]	3	Ambiguous-Dili-Concern
CNCCCN1c2ccccc2CCc2ccccc21 [DESIPRAMINE]	3	Ambiguous-Dili-Concern
Clc1ccc2c(c1)CCc1cccnc1C2=C1CCNCC1 [DESLORATADINE]	3	Less-Dili-Concern
NC(=O)CC[C@@H]1NC(=O)[C@H](Cc2ccccc2)NC(=O)[C@H](Cc2ccc(O)cc2)NC(=O)CCSSC[C@@H](C(=O)N2CCC[C@H]2C(=O)N[C@H](CCCN=C(N)N)C(=O)NCC(N)=O)NC(=O)[C@H](CC(N)=O)NC1=O [DESMOPRESSIN]	3	Ambiguous-Dili-Concern
CN(C)CC(c1ccc(O)cc1)C1(O)CCCCC1 (stereo not drawn) [DESVENLAFAXINE]	3	Less-Dili-Concern
C[C@@H]1C[C@H]2[C@@H]3CCC4=CC(=O)C=C[C@]4(C)[C@@]3(F)[C@@H](O)C[C@]2(C)[C@@]1(O)C(=O)CO [DEXAMETHASONE]	3	Ambiguous-Dili-Concern
CN(C)CC[C@@H](c1ccc(Br)cc1)c1ccccn1 [DEXBROMPHENIRAMINE]	0	No-Dili-Concern
CN(C)CC[C@@H](c1ccc(Cl)cc1)c1ccccn1 [DEXCHLORPHENIRAMINE]	0	No-Dili-Concern
Cc1c(OCC(F)(F)F)ccnc1C[S@@+]([O-])c1nc2ccccc2[nH]1 [DEXLANSOPRAZOLE]	4	Less-Dili-Concern
Cc1cccc([C@H](C)c2cnc[nH]2)c1C [DEXMEDETOMIDINE]	4	Ambiguous-Dili-Concern
COC(=O)[C@H](c1ccccc1)[C@H]1CCCCN1 [DEXMETHYLPHENIDATE]	7	Less-Dili-Concern
CC(C)(CO)[C@@H](O)C(=O)NCCCO [DEXPANTHENOL]	0	No-Dili-Concern
C[C@@H](CN1CC(=O)NC(=O)C1)N1CC(=O)NC(=O)C1 [DEXRAZOXANE]	4	Ambiguous-Dili-Concern
C[C@H](N)Cc1ccccc1 [DEXTROAMPHETAMINE]	0	No-Dili-Concern
COc1ccc2c(c1)[C@]13CCCC[C@@H]1[C@H](C2)N(C)CC3 [DEXTROMETHORPHAN]	0	No-Dili-Concern
OC[C@H]1OC(O)[C@H](O)[C@@H](O)[C@@H]1O (stereo partly drawn) [DEXTROSE]	0	No-Dili-Concern
CC(=O)Nc1c(I)c(NC(C)=O)c(I)c(C(=O)O)c1I [DIATRIZOIC ACID]	0	No-Dili-Concern
CN1C(=O)CN=C(c2ccccc2)c2cc(Cl)ccc21 [DIAZEPAM]	4	Ambiguous-Dili-Concern
CC1=NS(=O)(=O)c2cc(Cl)ccc2N1 [DIAZOXIDE]	3	Ambiguous-Dili-Concern
